Measured values as given in ChEMBL document CHEMBL5291721, “A preclinical secondary pharmacology resource illuminates target-adverse drug reaction associations of marketed drugs” (Nat Commun, 2023).

Assays:
[1] = biological target: T1, Alpha-1A adrenergic receptor (Homo sapiens, UniProt P35348); format: functional, cell-based
T1 sequence (P35348 whole entry): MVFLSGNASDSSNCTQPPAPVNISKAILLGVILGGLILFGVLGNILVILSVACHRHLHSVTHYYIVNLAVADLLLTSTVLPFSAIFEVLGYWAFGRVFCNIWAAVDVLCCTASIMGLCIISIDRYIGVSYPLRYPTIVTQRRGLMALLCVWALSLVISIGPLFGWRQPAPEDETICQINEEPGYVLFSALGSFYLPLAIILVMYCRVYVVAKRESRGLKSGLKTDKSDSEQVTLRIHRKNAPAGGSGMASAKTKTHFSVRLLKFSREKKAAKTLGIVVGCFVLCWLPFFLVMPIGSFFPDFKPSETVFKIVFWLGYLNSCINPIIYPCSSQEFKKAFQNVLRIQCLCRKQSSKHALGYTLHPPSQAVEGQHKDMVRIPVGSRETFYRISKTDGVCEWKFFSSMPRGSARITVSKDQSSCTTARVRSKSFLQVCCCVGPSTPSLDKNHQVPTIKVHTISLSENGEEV

[2] = biological target: Bile salt export pump (Homo sapiens, UniProt O95342); format: functional
[3] = biological target: Sodium-dependent dopamine transporter (Homo sapiens, UniProt Q01959)
[4] = biological target: T2, Progesterone receptor (Homo sapiens, UniProt P06401); format: functional
T2 sequence (P06401 whole entry): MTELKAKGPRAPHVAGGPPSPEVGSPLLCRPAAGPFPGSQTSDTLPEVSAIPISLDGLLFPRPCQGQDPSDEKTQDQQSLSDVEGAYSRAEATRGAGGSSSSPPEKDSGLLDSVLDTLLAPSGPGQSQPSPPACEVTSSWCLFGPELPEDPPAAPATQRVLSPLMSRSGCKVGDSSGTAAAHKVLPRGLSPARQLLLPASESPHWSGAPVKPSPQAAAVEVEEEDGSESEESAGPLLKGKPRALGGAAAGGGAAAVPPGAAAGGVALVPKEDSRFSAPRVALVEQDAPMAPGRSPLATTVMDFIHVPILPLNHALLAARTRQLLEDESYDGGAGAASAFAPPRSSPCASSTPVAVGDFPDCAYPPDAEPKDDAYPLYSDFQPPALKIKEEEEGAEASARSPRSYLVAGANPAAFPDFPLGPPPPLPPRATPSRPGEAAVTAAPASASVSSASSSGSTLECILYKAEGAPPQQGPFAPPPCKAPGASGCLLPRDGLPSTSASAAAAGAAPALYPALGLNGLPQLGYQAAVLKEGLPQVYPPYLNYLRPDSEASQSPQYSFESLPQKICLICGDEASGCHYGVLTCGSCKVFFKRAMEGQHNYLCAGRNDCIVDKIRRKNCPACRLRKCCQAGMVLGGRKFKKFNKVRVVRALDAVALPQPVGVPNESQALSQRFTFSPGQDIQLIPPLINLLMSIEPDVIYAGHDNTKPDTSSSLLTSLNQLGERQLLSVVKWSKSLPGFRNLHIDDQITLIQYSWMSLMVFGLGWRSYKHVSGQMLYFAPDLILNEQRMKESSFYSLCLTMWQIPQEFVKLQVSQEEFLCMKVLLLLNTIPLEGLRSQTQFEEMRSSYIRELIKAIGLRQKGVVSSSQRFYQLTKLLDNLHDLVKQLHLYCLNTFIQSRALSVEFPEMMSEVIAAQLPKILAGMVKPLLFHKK

[5] = biological target: T3, 5-hydroxytryptamine receptor 1A (Homo sapiens, UniProt P08908); format: functional, cell-based
T3 sequence (P08908 whole entry): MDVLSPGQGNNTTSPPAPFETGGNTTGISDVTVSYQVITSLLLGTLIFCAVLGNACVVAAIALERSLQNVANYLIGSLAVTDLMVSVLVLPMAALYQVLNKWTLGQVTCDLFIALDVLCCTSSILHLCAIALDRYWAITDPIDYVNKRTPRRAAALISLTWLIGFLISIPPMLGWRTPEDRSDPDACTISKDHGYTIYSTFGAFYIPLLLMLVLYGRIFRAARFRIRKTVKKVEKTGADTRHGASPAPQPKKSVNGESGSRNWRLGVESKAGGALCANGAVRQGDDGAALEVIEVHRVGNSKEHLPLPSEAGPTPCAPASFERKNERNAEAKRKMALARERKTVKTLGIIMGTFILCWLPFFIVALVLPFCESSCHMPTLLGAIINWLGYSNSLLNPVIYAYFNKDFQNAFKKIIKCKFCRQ

[6] = biological target: Histamine H2 receptor (Homo sapiens, UniProt P25021); format: functional, cell-based
[7] = biological target: T4, Prostaglandin G/H synthase 1 (Rattus norvegicus, UniProt Q63921); format: functional
T4 sequence (Q63921 whole entry): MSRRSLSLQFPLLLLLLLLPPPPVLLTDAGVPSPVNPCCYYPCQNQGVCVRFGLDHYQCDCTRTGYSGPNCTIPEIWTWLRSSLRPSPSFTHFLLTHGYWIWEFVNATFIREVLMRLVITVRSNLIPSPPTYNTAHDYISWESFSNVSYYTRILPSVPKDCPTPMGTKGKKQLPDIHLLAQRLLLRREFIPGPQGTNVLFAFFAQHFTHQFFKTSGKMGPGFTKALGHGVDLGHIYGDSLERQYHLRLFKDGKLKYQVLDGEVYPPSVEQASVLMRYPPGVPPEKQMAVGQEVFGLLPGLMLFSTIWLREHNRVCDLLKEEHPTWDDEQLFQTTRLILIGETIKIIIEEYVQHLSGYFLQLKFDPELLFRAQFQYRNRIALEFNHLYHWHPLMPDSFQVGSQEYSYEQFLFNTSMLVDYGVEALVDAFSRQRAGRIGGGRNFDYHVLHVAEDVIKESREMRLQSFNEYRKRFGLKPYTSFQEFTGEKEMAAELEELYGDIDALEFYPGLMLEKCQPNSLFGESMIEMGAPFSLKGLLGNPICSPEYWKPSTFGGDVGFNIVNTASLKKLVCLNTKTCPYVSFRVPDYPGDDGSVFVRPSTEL

[8] = biological target: T3, 5-hydroxytryptamine receptor 1A; format: functional, cell-based; remark: listed apart in the source
[9] = biological target: T1, Alpha-1A adrenergic receptor; format: functional, cell-based; remark: listed apart in the source
[10] = biological target: Sodium-dependent noradrenaline transporter (Homo sapiens, UniProt P23975)
Note: assay procedure not described here.

Sequence of Sodium-dependent dopamine transporter (Q01959 whole entry): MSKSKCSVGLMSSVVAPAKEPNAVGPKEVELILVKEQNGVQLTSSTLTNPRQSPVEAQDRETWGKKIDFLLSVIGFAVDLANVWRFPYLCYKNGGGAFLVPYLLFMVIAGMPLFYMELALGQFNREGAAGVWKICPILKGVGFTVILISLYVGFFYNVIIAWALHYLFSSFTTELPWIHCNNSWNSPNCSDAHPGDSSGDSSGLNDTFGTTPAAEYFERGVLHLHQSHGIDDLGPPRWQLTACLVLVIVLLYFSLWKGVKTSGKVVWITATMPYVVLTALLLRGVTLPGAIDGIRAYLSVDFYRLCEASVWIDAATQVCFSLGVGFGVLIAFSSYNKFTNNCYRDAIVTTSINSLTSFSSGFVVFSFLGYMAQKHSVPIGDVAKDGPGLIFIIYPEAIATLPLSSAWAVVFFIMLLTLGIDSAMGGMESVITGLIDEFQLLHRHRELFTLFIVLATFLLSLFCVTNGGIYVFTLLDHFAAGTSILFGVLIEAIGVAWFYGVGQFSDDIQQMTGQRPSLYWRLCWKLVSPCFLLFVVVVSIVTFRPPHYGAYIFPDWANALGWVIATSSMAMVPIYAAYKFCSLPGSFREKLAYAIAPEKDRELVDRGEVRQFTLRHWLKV
Sequence of Histamine H2 receptor (P25021 whole entry): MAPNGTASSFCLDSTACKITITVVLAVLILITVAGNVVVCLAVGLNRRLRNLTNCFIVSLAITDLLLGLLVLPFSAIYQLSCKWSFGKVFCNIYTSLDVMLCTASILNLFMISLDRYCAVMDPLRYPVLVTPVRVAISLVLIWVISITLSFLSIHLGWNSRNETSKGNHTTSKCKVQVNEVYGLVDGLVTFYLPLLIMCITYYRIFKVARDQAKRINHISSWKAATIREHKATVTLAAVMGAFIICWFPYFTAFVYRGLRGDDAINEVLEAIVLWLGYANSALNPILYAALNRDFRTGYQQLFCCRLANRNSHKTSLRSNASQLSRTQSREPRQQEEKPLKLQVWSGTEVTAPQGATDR
Sequence of Sodium-dependent noradrenaline transporter (P23975 whole entry): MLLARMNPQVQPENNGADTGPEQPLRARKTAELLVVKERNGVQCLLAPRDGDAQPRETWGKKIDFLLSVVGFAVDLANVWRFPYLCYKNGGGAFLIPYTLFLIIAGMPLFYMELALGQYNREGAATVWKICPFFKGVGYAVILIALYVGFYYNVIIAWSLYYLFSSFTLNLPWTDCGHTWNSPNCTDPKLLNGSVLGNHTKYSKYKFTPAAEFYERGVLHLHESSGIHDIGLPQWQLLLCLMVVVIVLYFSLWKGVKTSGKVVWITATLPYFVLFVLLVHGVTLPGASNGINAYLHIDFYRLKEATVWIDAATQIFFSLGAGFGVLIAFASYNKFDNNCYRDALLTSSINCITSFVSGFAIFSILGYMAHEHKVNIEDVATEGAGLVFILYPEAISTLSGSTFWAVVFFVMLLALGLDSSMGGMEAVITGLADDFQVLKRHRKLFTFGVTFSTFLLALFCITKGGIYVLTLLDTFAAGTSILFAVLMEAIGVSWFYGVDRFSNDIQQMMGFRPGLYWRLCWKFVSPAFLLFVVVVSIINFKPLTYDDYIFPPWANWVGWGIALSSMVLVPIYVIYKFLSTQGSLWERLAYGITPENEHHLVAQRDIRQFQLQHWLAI
Sequence of Bile salt export pump (O95342 whole entry): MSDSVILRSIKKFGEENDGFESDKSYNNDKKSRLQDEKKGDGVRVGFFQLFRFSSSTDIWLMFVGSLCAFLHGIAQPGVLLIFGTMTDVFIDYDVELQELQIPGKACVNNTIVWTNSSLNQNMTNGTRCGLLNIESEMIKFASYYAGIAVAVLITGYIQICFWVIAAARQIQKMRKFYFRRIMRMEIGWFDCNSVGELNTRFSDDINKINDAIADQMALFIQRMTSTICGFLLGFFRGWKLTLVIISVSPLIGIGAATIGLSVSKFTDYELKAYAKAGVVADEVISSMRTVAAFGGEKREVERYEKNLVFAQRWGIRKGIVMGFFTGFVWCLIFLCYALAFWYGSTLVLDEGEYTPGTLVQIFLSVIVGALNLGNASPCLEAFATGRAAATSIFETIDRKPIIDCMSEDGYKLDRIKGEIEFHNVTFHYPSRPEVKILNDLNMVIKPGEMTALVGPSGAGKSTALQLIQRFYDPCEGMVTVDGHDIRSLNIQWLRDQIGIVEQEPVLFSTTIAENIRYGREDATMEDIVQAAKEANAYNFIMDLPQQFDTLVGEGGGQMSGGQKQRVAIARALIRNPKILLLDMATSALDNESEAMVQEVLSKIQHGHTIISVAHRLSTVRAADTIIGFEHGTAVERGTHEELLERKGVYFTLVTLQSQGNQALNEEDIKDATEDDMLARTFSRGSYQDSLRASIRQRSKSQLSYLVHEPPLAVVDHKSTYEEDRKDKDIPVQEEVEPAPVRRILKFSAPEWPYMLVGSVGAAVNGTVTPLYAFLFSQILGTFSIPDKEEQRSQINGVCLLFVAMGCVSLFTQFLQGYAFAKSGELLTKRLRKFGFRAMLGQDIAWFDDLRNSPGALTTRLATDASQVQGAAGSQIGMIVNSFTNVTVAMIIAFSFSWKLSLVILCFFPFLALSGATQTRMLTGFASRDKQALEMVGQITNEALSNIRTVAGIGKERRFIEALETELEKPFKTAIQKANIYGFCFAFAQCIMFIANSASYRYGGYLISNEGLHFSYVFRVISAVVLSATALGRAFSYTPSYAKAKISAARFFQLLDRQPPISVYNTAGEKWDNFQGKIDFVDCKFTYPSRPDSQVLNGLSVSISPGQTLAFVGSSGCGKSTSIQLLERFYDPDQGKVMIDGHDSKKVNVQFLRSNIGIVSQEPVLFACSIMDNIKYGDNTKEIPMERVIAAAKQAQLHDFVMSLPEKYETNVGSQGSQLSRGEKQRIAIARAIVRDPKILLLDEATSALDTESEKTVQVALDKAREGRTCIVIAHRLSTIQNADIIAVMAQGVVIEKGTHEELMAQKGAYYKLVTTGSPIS

SMILES	AC50 [1]	AC50 [2]	AC50 [3]	AC50 [4]	AC50 [5]	AC50 [6]	AC50 [7]	AC50 [8]	AC50 [9]	AC50 [10]
CC(=O)NO [ACETOHYDROXAMIC ACID]	> 30 µM	> 300 µM	–	–	–	–	–	–	–	–
C[C@H]1CN(C[C@H](Cc2ccccc2)C(=O)NCC(=O)O)CC[C@@]1(C)c1cccc(O)c1 [ALVIMOPAN]	> 30 µM	> 300 µM	–	–	–	–	–	–	–	–
O=C(O)c1ccccc1 [BENZOIC ACID]	> 30 µM	260 µM	–	–	–	–	–	–	–	–
Nc1c(CC(=O)O)cccc1C(=O)c1ccc(Br)cc1 [BROMFENAC]	> 30 µM	88 µM	–	–	–	–	–	–	–	–
CC1(C)S[C@@H]2[C@H](NC(=O)C(C(=O)O)c3ccccc3)C(=O)N2[C@H]1C(=O)O (stereo partly specified) [CARBENICILLIN]	–	210 µM	> 30 µM	> 30 µM	> 30 µM	> 30 µM	> 30 µM	> 30 µM	> 30 µM	> 30 µM
Cc1nnc(SCC2=C(C(=O)O)N3C(=O)[C@@H](NC(=O)Cn4cnnn4)[C@H]3SC2)s1 [CEFAZOLIN]	–	> 300 µM	> 300 µM	> 300 µM	> 300 µM	> 30 µM	160 µM	> 300 µM	> 300 µM	> 300 µM
CC=CC1=C(C(=O)O)N2C(=O)[C@@H](NC(=O)[C@H](N)c3ccc(O)cc3)[C@H]2SC1 [CEFPROZIL]	–	> 300 µM	> 30 µM	> 30 µM	> 30 µM	> 30 µM	13.7 µM	> 30 µM	> 30 µM	> 30 µM
CC(C)(O/N=C(\C(=O)N[C@@H]1C(=O)N2C(C(=O)[O-])=C(C[n+]3ccccc3)CS[C@H]12)c1csc(N)n1)C(=O)O [CEFTAZIDIME]	–	> 300 µM	> 300 µM	> 300 µM	> 300 µM	> 30 µM	> 300 µM	> 300 µM	> 300 µM	> 300 µM
Cc1nc(Nc2ncc(C(=O)Nc3c(C)cccc3Cl)s2)cc(N2CCN(CCO)CC2)n1 [DASATINIB]	–	22 µM	25.3 µM	> 30 µM	> 30 µM	> 30 µM	> 30 µM	> 30 µM	10 µM	6.3 µM
O=C(O)Cc1ccccc1Nc1c(Cl)cccc1Cl [DICLOFENAC]	> 3 µM	> 300 µM	> 30 µM	–	> 10 µM	> 10 µM	–	> 10 µM	> 30 µM	> 30 µM
CC(C(=O)O)c1cccc(Oc2ccccc2)c1 (stereo unspecified) [FENOPROFEN]	> 30 µM	> 300 µM	–	–	–	–	–	–	–	–
Cc1ccc(C)c(OCCCC(C)(C)C(=O)O)c1 [GEMFIBROZIL]	> 30 µM	> 300 µM	> 10 µM	–	> 10 µM	> 10 µM	> 30 µM	> 10 µM	> 30 µM	> 10 µM
Cc1cc(=O)oc2cc(O)ccc12 [HYMECROMONE]	> 30 µM	> 300 µM	–	–	–	–	–	–	–	–
COc1cc(C(C)=O)ccc1OCCCN1CCC(c2noc3cc(F)ccc23)CC1 [ILOPERIDONE]	0.003 µM	40 µM	5.95 µM	> 30 µM	> 30 µM	–	> 30 µM	0.055 µM	0.0092 µM	1.63 µM
C[N+]1(C)CCCC(OC(=O)C(O)(c2ccccc2)c2ccccc2)C1 (stereo unspecified) [MEPENZOLATE]	> 30 µM	> 300 µM	–	–	–	–	–	–	–	–
CN(C)c1ccc(O)c2c1C[C@H]1C[C@H]3[C@H](N(C)C)C(O)=C(C(N)=O)C(=O)[C@@]3(O)C(O)=C1C2=O [MINOCYCLINE]	> 30 µM	83 µM	–	–	–	–	–	–	–	–
C=CC(=O)Nc1cccc(Oc2nc(Nc3ccc(N4CCN(C)CC4)cc3)nc3ccsc23)c1 [OLMUTINIB]	4.91 µM	13 µM	–	–	–	–	–	–	–	–
Cc1ccc(C(=O)c2ccc(CC(=O)O)n2C)cc1 [TOLMETIN]	> 30 µM	> 300 µM	–	–	–	–	–	–	–	–
Cc1ccccc1C(=O)Nc1ccc(C(=O)N2CCCC(O)c3cc(Cl)ccc32)c(C)c1 (stereo unspecified) [TOLVAPTAN]	> 30 µM	7.87 µM	–	–	–	–	–	–	–	–
O=C1Cc2cc(CCN3CCN(c4nsc5ccccc45)CC3)c(Cl)cc2N1 [ZIPRASIDONE]	0.0179 µM	18 µM	5.11 µM	–	0.95 µM	> 10 µM	> 30 µM	–	0.684 µM	0.89 µM
